Assay results from patent EP0792649A1, “Treatment of sleep disorders” (ELI LILLY AND COMPANY, priority 1996, dated 1997).

Legend:
Type in all cases: in vivo, Sprague-Dawley rats
DA = assay: Microdialysis assays of monoamines: DA level in hypothalamus dialysate of conscious rats
Experimental: (§1) The tests were carried out as follows.
(§2) Sprague-Dawley rats (Harlan or Charles River) weighing 270-300 grams were surgically implanted with microdialysis probes under chloral hydrate/pentobarbital anesthesia (170 and 36 mg/kg i.p. in 30% propylene glycol, 14% ethanol) (Perry and Fuller, Effect of fluoxetine on serotonin and dopamine concentration in rat hypothalamus after administration of fluoxetine plus L-5-hydroxytryptophan, Life Sci., 50, 1683-90 (1992)). A David Kopf stereotaxic instrument was used to implant the probe unilaterally in the hypothalamus at coordinates rostral -1.5 mm, lateral -1.3 mm, and ventral -9.0 mm (Paxinos and Watson, 1986). After a 48 hour recovery period, rats were placed in a large plastic bowl with a mounted liquid swivel system (CMA/120 system for freely moving animals, Bioanalytical Systems, West Lafayette, IN). Filtered artificial cerebrospinal fluid (CSF) (150 mM NaCl, 3.0 mM KCl, 1.7 mM CaCl2, and 0.9 mM MgCl2) was perfused through the probe at a rate of 1.0 µl/min. The output dialysate line was fitted to a tenport HPLC valve with a 20 µl loop. At the end of each 30 minute sampling period, dialysate collected in the loop was injected on an analytical column (Spherisorb 3 µ ODS2, 2X150 mm, Keystone Scientific).
(§3) The method used to measure monoamines was as described by Perry and Fuller (1993). Briefly, dialysate collected in the 20 µl loop was assayed for 5-HT, NE and DA. The 20 µl injection went onto the column with a mobile phase which resolved NE, DA, and 5-HT: 75 mM potassium acetate, 0.5 mM ethylenediaminetetraacetic acid, 1.4 mM sodium octanesulfonic acid and 8% methanol, pH 4.9. The mobile phase for the amine column was delivered with a flow programmable pump at an initial flow rate of 0.2 ml/min increasing to 0.3 ml/min at 5 min then decreasing back to 0.2 ml/min at 26 min with a total run time of 30 min. Flow programming was used to elute the 5-HT within a 25 min time period. The electrochemical detector (EG&G, Model 400) for the amine column was set at a potential of 400 mV and a sensitivity of 0.2 nA/V. The data was collected and analyzed with a Hewlett-Packard HP1000 chromatography system which measured peak heights and calculated sample concentrations. Basal levels were measured for at least 90 minutes prior to drug administration.
(§4) Extracellular levels of the amines in microdialysates were calculated by comparing peak heights with those of 50 pmole standards. The mean value of the four samples immediately preceding drug administration served as the basal level for each experiment and data was converted to percent of basal. Paired t-tests were used to compare the mean of the basal values from the time point immediately preceding drug administration to those of each time point thereafter.
(§5) The rats were prepared as described above, and the indole was administered subcutaneously at 3 mg/kg 100 minutes after the start of the experiment. Fluoxetine was administered intraperitoneally at 10 mg/kg, together with a second dose of the indole at 3 mg/kg, 210 minutes after the start of the experiment. Each data point reported here represents a single animal.
(§6) The results are shown below as percent of baseline of the three monoamines, at various times after the start of the experiment. Each data point represents the average of three or more animals.
(§7) This test was carried out as described in Test 1, using 4-(2-hydroxy-3-cyclohexylaminopropoxy)indole, maleate, at 3 mg/kg administered at 120 minutes, and (+)-duloxetine, hydrochloride, at 4 mg/kg administered with a second dose of the indole at 3 mg/kg, at 270 minutes. Results are reported as in Test 2 above. The 5-HT results are the average of three animals, and the other results are the average of four animals.

NE = assay: Microdialysis assays of monoamines: NE level in hypothalamus dialysate of conscious rats
Experimental: as §1, §2, §3, §4, §5, §6, §7

5-HT = assay: Microdialysis assays of monoamines: 5-HT level in hypothalamus dialysate of conscious rats; details: for 5-HT level measured in the dialysate, % of baseline: Test 1, single animal; for 5-HT, percent of baseline: Test 3, average of three animals
Experimental: as §1, §2, §3, §4, §5, §6, §7

[1] = Test 3, 120 min (time of first indole dose, 3 mg/kg), average of four animals
[2] = Test 3, 150 min, the indole 3 mg/kg at 120 min, average of four animals
[3] = Test 3, 180 min, the indole 3 mg/kg at 120 min, average of four animals
[4] = Test 3, 210 min, the indole 3 mg/kg at 120 min, average of four animals
[5] = Test 3, 240 min, the indole 3 mg/kg at 120 min, average of four animals
[6] = Test 3, 270 min, the indole 3 mg/kg at 120 min, average of four animals
[7] = Test 2, 120 min (time of first (-)-pindolol dose, 5 mg/kg), average of three or more animals
[8] = Test 2, 150 min, (-)-pindolol 5 mg/kg at 120 min, average of three or more animals
[9] = Test 2, 180 min, (-)-pindolol 5 mg/kg at 120 min, average of three or more animals
[10] = Test 2, 210 min, (-)-pindolol 5 mg/kg at 120 min, average of three or more animals

`O=C(O)/C=C\C(=O)O.OC(CNC1CCCCC1)COc1cccc2[nH]ccc12` (centres unmarked) [4-(2-hydroxy-3-cyclohexylaminopropoxy)indole, maleate] was tested, and the “DA level, % of baseline” value (DA; Test 1, 120 min, the indole 3 mg/kg s.c. at 100 min, single animal) was “about 210%”, the “DA level, relative to baseline” value (DA; Test 1, 210 min, the indole 3 mg/kg s.c. at 100 min, single animal) was “near baseline” and the “DA, percent of baseline” value (DA; [1]) was 70%. The “DA, percent of baseline” value (DA; [2]) was 150%, the “DA, percent of baseline” value (DA; [3]) was 130% and the “DA, percent of baseline” value (DA; [4]) was 110%. The “DA, percent of baseline” value (DA; [5]) was 100%, the “DA, percent of baseline” value (DA; [6]) was 110% and the “NE level, relative to baseline” value (NE; Test 1, by 210 min, the indole 3 mg/kg s.c. at 100 min, single animal) was “nearly to baseline”. The “NE level, % of baseline” value (NE; Test 1, highest level after the indole 3 mg/kg s.c. at 100 min, single animal) was “about 180%”, the “NE, percent of baseline” value (NE; [1]) was 100% and the “NE, percent of baseline” value (NE; [2]) was 160%. The “NE, percent of baseline” value (NE; [3]) was 140%, the “NE, percent of baseline” value (NE; [4]) was 140% and the “NE, percent of baseline” value (NE; [5]) was 130%. The “NE, percent of baseline” value (NE; [6]) was 150%, the “5-HT level measured in the dialysate, % of baseline” value (5-HT; 210 min after start, the indole 3 mg/kg s.c. at 100 min) was “about 80%” and the “5-HT level measured in the dialysate, % of baseline” value (5-HT; lowest level after the indole 3 mg/kg s.c. at 100 min) was “about 50%”. The “5-HT, percent of baseline” value (5-HT; 120 min (time of first indole dose, 3 mg/kg)) was 90%, the “5-HT, percent of baseline” value (5-HT; 150 min, the indole 3 mg/kg at 120 min) was 130% and the “5-HT, percent of baseline” value (5-HT; 180 min, the indole 3 mg/kg at 120 min) was 130%. The “5-HT, percent of baseline” value (5-HT; 210 min, the indole 3 mg/kg at 120 min) was 80%, the “5-HT, percent of baseline” value (5-HT; 240 min, the indole 3 mg/kg at 120 min) was 90% and the “5-HT, percent of baseline” value (5-HT; 270 min, the indole 3 mg/kg at 120 min) was 80%.

With `CC(C)NCC(O)COc1cccc2[nH]ccc12` (single isomer, unassigned; (-)) [(-)-pindolol, 4-(2-hydroxy-3-isopropylaminopropoxy)-indole] the “DA, percent of baseline” value (DA; [7]) was 90%, the “DA, percent of baseline” value (DA; [8]) was 90% and the “DA, percent of baseline” value (DA; [9]) was 70%. For the same compound, the “DA, percent of baseline” value (DA; [10]) was 100%, the “NE, percent of baseline” value (NE; [7]) was 90% and the “NE, percent of baseline” value (NE; [8]) was 100%. For the same compound, the “NE, percent of baseline” value (NE; [9]) was 120% and the “NE, percent of baseline” value (NE; [10]) was 110%.
